Reference: patent US4868117A, “BBM-1675, a new antitumor antibiotic complex” (Bristol-Myers Company, priority 1985, dated 1989)
Several values for one entry are separate records, joined by “and”; a condition that tells them apart may be missing. Equal values may be shown once. Read-outs that look alike come from different tables or passages of the source.

Key:
[1] = test system: P-388 leukemia; experiment: Intravenously implanted P-388 leukemia, i.v. treatment; settings: days 1, 4 and 7, lines in dose order as in E66 (Adriamycin starts with 30)
Protocol: (§1) Lymphocytic leukemia P-388, lymphoid leukemia L-1210, melanotic melanoma B16 and Lewis lung carcinoma were implanted intraperitoneally into male BDF1 mice at an inoculum size of 10^6, 10^5, 5×10^5 and 10^6 cells per mouse, respectively. Graded doses of test compounds were administered to the mice intraperitoneally 24 hours after the tumor inoculation.
(§2) Death or survival of the treated and non-treated mice was recorded daily, and the median survival time (MST) was calculated for each of the test (T) and control (C) groups. […] Second experiments were carried out by intravenous administration of BBM-1675 components against P-388 and L-1210 leukemias, which were inoculated intravenously at 5×10^5 and 10^4 cells per mouse, respectively.

[2] = test system: L-1210 leukemia; experiment: Intravenously implanted L-1210 leukemia, i.v. treatment; settings: days 1, 4 and 7, lines in dose order as in E71 (Adriamycin starts with 16)
Protocol: as §1, §2

[3] = test system: P-388 leukemia; settings: for Therapeutic index, LD50/MED: MED = minimum effective dose
Protocol: as §1, §2

[4] = test system: B16 melanoma
Protocol: as §1
(§3) Death or survival of the treated and non-treated mice was recorded daily, and the median survival time (MST) was calculated for each of the test (T) and control (C) groups.

[5] = test system: male ddY mice; experiment: Toxicity (LD50) in male ddY mice; settings: multiple dose (qd 1→9), i.p.
[6] = test system: Lewis lung carcinoma
Protocol: as §1, §3

[7] = test system: L-1210 leukemia; settings: i.p., qd 1→9
Protocol: as §1, §3

[8] = i.p., qd 1→9, lines in dose order as in E48
[9] = i.p., qd 1→11, lines in dose order as in E53

COc1cccc2c1C(=O)c1c(O)c3c(c(O)c1C2=O)C[C@@](O)(C(=O)CO)C[C@@H]3O[C@H]1C[C@H](N)[C@H](O)[C@H](C)O1 [Adriamycin, adriamycin]
Survivors on day 5 [1]: 0/6 and 6/6
Survivors on day 45 [1]: 0/6
Survivors on day 5 [2]: 2/6 and 6/6
Survivors on day 45 [2]: 0/6

CO[C@@H]1[C@H](O)C[C@@H](O[C@@H]2C[C@H](Oc3cc4cc5c(c(O)c4c(O)c3C)C(=O)[C@@H](O[C@H]3C[C@@H](O[C@H]4C[C@@H](O[C@H]6C[C@](C)(O)[C@@H](OC(C)=O)[C@H](C)O6)[C@H](O)[C@@H](C)O4)[C@H](O)[C@@H](C)O3)[C@H]([C@H](OC)C(=O)[C@@H](O)[C@@H](C)O)C5)O[C@H](C)[C@@H]2OC(C)=O)O[C@@H]1C [Chromomycin A3, chromomycin A3]
Therapeutic index, LD50/MED ([3]; P-388, qd 1→9): 8
Therapeutic index, LD50/MED ([3]; P-388, single): 8
Survivors on day 45 ([3]; mouse, in vivo, ip): 0/5 and 1/5
Therapeutic index, LD50/MED ([4]; B16, MED = minimum effective dose): 23
MST [4, 8]: 23.0 days and 21.0 days
Survivors on day 5 [4, 8]: 6/6
Survivors on day 45 [4, 8]: 0/6
MST ([4]; mouse, in vivo, ip): 18.0
LD50 [5]: 0.23 mg/kg/day
Therapeutic index, LD50/MED ([6]; LL, MED = minimum effective dose): 23
Survivors on day 5 [6, 9]: 6/6 and 5/5
Survivors on day 45 [6, 9]: 1/6 and 0/6
MST ([6]; mouse, in vivo, ip): 17.0
Survivors on day 45 ([6]; mouse, in vivo, ip): 0/5
MST ([7]; lines in dose order as in E43): 8.5 days and 11.0 days and 10.0 days
Survivors on day 5 ([7]; lines in dose order as in E43): 6/6
Survivors on day 45 ([7]; lines in dose order as in E43): 0/6
T/C ([7]; ≥[…] significant, mg/kg/day in line order: A1 0.003,0.001,0.0003,0.0001, A2 0.03,0.01,0.003,0.001,0.0003, chromomycin A3 0.3,0.1,0.03,0.01,0.003): 89%
